According to US9579314B2 (priority 2015, dated 2017):

Tests used:
[1] = biological target: Human M3 receptor (Homo sapiens, UniProt P20309); details: read-out: M3 binding affinity
[2] = biological target: Human β2 adrenoceptor (Homo sapiens, UniProt P07550); details: read-out: B2 binding affinity
Human β2 adrenoceptor, sequence (P07550 whole entry): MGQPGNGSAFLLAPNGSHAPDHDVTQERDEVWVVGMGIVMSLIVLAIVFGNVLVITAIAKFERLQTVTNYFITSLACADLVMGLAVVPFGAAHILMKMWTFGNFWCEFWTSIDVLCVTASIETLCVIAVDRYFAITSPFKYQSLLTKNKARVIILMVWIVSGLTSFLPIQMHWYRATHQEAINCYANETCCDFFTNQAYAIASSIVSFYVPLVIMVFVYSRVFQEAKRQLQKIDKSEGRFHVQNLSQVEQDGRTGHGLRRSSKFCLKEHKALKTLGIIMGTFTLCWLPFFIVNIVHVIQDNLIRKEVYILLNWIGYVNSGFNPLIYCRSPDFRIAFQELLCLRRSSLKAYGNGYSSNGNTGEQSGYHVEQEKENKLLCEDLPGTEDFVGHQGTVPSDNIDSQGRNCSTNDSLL

Human M3 receptor, sequence (P20309 whole entry): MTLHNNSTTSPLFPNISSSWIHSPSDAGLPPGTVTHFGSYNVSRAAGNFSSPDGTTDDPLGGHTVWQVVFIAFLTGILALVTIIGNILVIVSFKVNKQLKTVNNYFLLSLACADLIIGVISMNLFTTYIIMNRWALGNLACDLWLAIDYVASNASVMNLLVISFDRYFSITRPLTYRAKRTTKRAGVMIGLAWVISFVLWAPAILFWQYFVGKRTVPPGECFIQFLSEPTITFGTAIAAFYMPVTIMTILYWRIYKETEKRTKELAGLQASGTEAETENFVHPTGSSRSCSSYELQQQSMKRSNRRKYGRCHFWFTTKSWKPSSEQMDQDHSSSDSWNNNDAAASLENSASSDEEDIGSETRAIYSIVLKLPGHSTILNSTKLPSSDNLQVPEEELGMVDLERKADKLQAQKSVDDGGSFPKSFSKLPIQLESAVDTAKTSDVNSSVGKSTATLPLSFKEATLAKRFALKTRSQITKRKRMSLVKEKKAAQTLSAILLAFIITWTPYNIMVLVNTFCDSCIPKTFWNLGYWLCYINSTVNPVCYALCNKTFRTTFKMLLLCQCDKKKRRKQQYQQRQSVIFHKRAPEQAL

Row | Structure (SMILES) | IC50 [1] [nM] | IC50 [2] [nM]
1 | O=C(COc1cccc([C@](O)(C(=O)OCC2CCN(Cc3ccccc3)CC2)c2ccccc2)c1)N[C@H]1C[C@H](NC(=O)c2ccc(CNC[C@H](O)c3ccc(O)c4[nH]c(=O)ccc34)cn2)C1 [Compound 144, (1-benzylpiperidin-4-yl)methyl (S)-2-hydroxy-2-(3-(2-(((1R,3S)-3-(5-((((R)-2-hydroxy-2-(8-hydroxy-2-oxo-1,2-dihydroquinolin-5-yl)ethyl)amino)methyl)picolinamido)cyclobutyl)amino)-2-oxoethoxy)phenyl)-2-phenylacetate] | 0.3 to 3 | < 0.3
2 | O=C(COc1cccc([C@](O)(C(=O)OCC2CCN(Cc3ccccc3)CC2)c2ccccc2)c1)N[C@H]1C[C@H](NC(=O)c2ccc(CNC[C@H](O)c3ccc(O)c4[nH]c(=O)ccc34)nc2)C1 [Compound 145, (1-benzylpiperidin-4-yl)methyl (S)-2-hydroxy-2-(3-(2-(((1R,3S)-3-(6-((((R)-2-hydroxy-2-(8-hydroxy-2-oxo-1,2-dihydroquinolin-5-yl)ethyl)amino)methyl)nicotinamido)cyclobutyl)amino)-2-oxoethoxy)phenyl)-2-phenylacetate] | 0.3 to 3 | 0.3 to 3
3 | O=C(COc1cccc([C@](O)(C(=O)OCC2CCN(Cc3ccccc3)CC2)c2ccccc2)c1)N[C@H]1C[C@H](NC(=O)Cc2ccc(CNC[C@H](O)c3ccc(O)c4[nH]c(=O)ccc34)cc2)C1 [Compound 146, (1-benzylpiperidin-4-yl)methyl (S)-2-hydroxy-2-(3-(2-(((1R,3S)-3-(2-(4-((((R)-2-hydroxy-2-(8-hydroxy-2-oxo-1,2-dihydroquinolin-5-yl)ethyl)amino)methyl)phenyl)acetamido)cyclobutyl)amino)-2-oxoethoxy)phenyl)-2-phenylacetate] | 0.3 to 3 | > 3
4 | O=C(COc1cccc([C@](O)(C(=O)OCC2CCN(Cc3ccccc3)CC2)c2ccccc2)c1)N1CC(C(=O)N2CCC(CNC[C@H](O)c3ccc(O)c4[nH]c(=O)ccc34)CC2)C1 [Compound 147, (1-Benzylpiperidin-4-yl)methyl (S)-2-hydroxy-2-(3-(2-(3-(4-((((R)-2-hydroxy-2-(8-hydroxy-2-oxo-1,2-dihydroquinolin-5-yl)ethyl)amino)methyl)piperidine-1-carbonyl)azetidin-1-yl)-2-oxoethoxy)phenyl)-2-phenylacetate] | 0.3 to 3 | < 0.3
5 | O=C(COc1cccc([C@](O)(C(=O)OCC2CCN(Cc3ccccc3)CC2)c2ccccc2)c1)N1CCC(C(=O)N2CCC(CNC[C@H](O)c3ccc(O)c4[nH]c(=O)ccc34)CC2)CC1 [Compound 148, (1-benzylpiperidin-4-yl)methyl (S)-2-hydroxy-2-(3-(2-(4-(4-((((R)-2-hydroxy-2-(8-hydroxy-2-oxo-1,2-dihydroquinolin-5-yl)ethyl)amino)methyl)piperidine-1-carbonyl)piperidin-1-yl)-2-oxoethoxy)phenyl)-2-phenylacetate] | 0.3 to 3 | < 0.3
6 | O=C(COc1cccc([C@](O)(C(=O)OCC2CCN(Cc3ccccc3)CC2)c2ccccc2)c1)N[C@H]1CC[C@H](C(=O)N2CCC(CNC[C@H](O)c3ccc(O)c4[nH]c(=O)ccc34)CC2)CC1 [Compound 149, (1-benzylpiperidin-4-yl)methyl (S)-2-hydroxy-2-(3-(2-(((1R,4S)-4-(4-((((R)-2-hydroxy-2-(8-hydroxy-2-oxo-1,2-dihydroquinolin-5-yl)ethyl)amino)methyl)piperidine-1-carbonyl)cyclohexyl)amino)-2-oxoethoxy)phenyl)-2-phenylacetate] | < 0.3 | 0.3 to 3
7 | O=C(COc1cccc([C@](O)(C(=O)OCC2CCN(Cc3ccccc3)CC2)c2ccccc2)c1)NCC(=O)N1CCC(CNC[C@H](O)c2ccc(O)c3[nH]c(=O)ccc23)CC1 [Compound 150, (1-benzylpiperidin-4-yl)methyl (S)-2-hydroxy-2-(3-(2-((2-(4-((((R)-2-hydroxy-2-(8-hydroxy-2-oxo-1,2-dihydroquinolin-5-yl)ethyl)amino)methyl)piperidin-1-yl)-2-oxoethyl)amino)-2-oxoethoxy)phenyl)-2-phenylacetate] | < 0.3 | < 0.3
8 | O=C(c1ccc(CCNC[C@H](O)c2ccc(O)c3[nH]c(=O)ccc23)cc1)N1CCC(C(=O)N2CCC(COc3cccc([C@](O)(C(=O)OCC4CCN(Cc5ccccc5)CC4)c4ccccc4)c3)CC2)CC1 [Compound 151, (1-Benzylpiperidin-4-yl)methyl (S)-2-hydroxy-2-(3-((1-(1-(4-(2-(((R)-2-hydroxy-2-(8-hydroxy-2-oxo-1,2-dihydroquinolin-5-yl)ethyl)amino)ethyl)benzoyl)piperidine-4-carbonyl)piperidin-4-yl)methoxy)phenyl)-2-phenylacetate] | < 0.3 | < 0.3
9 | O=C(NCC(=O)N1CCC(COc2cccc([C@](O)(C(=O)OCC3CCN(Cc4ccccc4)CC3)c3ccccc3)c2)CC1)c1ccc(CCNC[C@H](O)c2ccc(O)c3[nH]c(=O)ccc23)cc1 [Compound 152, (1-benzylpiperidin-4-yl)methyl (S)-2-hydroxy-2-(3-((1-((4-(2-(((R)-2-hydroxy-2-(8-hydroxy-2-oxo-1,2-dihydroquinolin-5-yl)ethyl)amino)ethyl)benzoyl)glycyl)piperidin-4-yl)methoxy)phenyl)-2-phenylacetate] | < 0.3 | 0.3 to 3
10 | COc1cc(C(=O)NCC(=O)N2CCC(COc3cccc([C@](O)(C(=O)OCC4CCN(Cc5ccccc5)CC4)c4ccccc4)c3)CC2)ccc1CNC[C@H](O)c1ccc(O)c2[nH]c(=O)ccc12 [Compound 153, (1-benzylpiperidin-4-yl)methyl (S)-2-hydroxy-2-(3-((1-((4-((((R)-2-hydroxy-2-(8-hydroxy-2-oxo-1,2-dihydroquinolin-5-yl)ethyl)amino)methyl)-3-methoxybenzoyl)glycyl)piperidin-4-yl)methoxy)phenyl)-2-phenylacetate] | < 0.3 | < 0.3
11 | O=C(NCC(=O)N1CCC(COc2cccc([C@](O)(C(=O)OCC3CCN(Cc4ccccc4)CC3)c3ccccc3)c2)CC1)c1ccc(CNC[C@H](O)c2ccc(O)c3[nH]c(=O)ccc23)cc1 [Compound 154, (1-benzylpiperidin-4-yl)methyl (S)-2-hydroxy-2-(3-((1-((4-((((R)-2-hydroxy-2-(8-hydroxy-2-oxo-1,2-dihydroquinolin-5-yl)ethyl)amino)methyl)benzoyl)glycyl)piperidin-4-yl)methoxy)phenyl)-2-phenylacetate] | < 0.3 | < 0.3
12 | COc1cc(CNC[C@H](O)c2ccc(O)c3[nH]c(=O)ccc23)ccc1C(=O)NCC(=O)N1CCC(COc2cccc([C@](O)(C(=O)OCC3CCN(Cc4ccccc4)CC3)c3ccccc3)c2)CC1 [Compound 155, (1-benzylpiperidin-4-yl)methyl (S)-2-hydroxy-2-(3-((1-((4-((((R)-2-hydroxy-2-(8-hydroxy-2-oxo-1,2-dihydroquinolin-5-yl)ethyl)amino)methyl)-2-methoxybenzoyl)glycyl)piperidin-4-yl)methoxy)phenyl)-2-phenylacetate] | 0.3 to 3 | < 0.3
13 | O=C(c1ccc(C(=O)N2CCC(COc3cccc([C@](O)(C(=O)OCC4CCN(Cc5ccccc5)CC4)c4ccccc4)c3)CC2)s1)N1CCC(CNC[C@H](O)c2ccc(O)c3[nH]c(=O)ccc23)CC1 [Compound 156, (1-Benzylpiperidin-4-yl)methyl (S)-2-hydroxy-2-(3-((1-(5-(4-((((R)-2-hydroxy-2-(8-hydroxy-2-oxo-1,2-dihydroquinolin-5-yl)ethyl)amino)methyl)piperidine-1-carbonyl)thiophene-2-carbonyl)piperidin-4-yl)methoxy)phenyl)-2-phenylacetate] | < 0.3 | < 0.3
14 | O=C(OCC1CCN(Cc2ccccc2)CC1)[C@](O)(c1ccccc1)c1cccc(OCC2CCN(C(=O)[C@H]3CC[C@H](C(=O)N4CCC(CNC[C@H](O)c5ccc(O)c6[nH]c(=O)ccc56)CC4)CC3)CC2)c1 [Compound 157, (1-benzylpiperidin-4-yl)methyl (S)-2-hydroxy-2-(3-((1-((1R,4S)-4-(4-((((R)-2-hydroxy-2-(8-hydroxy-2-oxo-1,2-dihydroquinolin-5-yl)ethyl)amino)methyl)piperidine-1-carbonyl)cyclohexane-1-carbonyl)piperidin-4-yl)methoxy)phenyl)-2-phenylacetate] | 0.3 to 3 | > 3
15 | O=C(NCCCOc1cccc([C@](O)(C(=O)OCC2CCN(C3CCC3)CC2)c2ccccc2)c1)c1ccc(CNC[C@H](O)c2ccc(O)c3[nH]c(=O)ccc23)cc1 [Compound 161, (1-cyclobutylpiperidin-4-yl)methyl (S)-2-hydroxy-2-(3-(3-(4-((((R)-2-hydroxy-2-(8-hydroxy-2-oxo-1,2-dihydroquinolin-5-yl)ethyl)amino)methyl)benzamido)propoxy)phenyl)-2-phenylacetate] | 0.3 to 3 | < 0.3
16 | CN1CCC(COC(=O)[C@](O)(c2ccccc2)c2cccc(OCCCNC(=O)c3ccc(CNC[C@H](O)c4ccc(O)c5[nH]c(=O)ccc45)cc3)c2)CC1 [Compound 162, (1-methylpiperidin-4-yl)methyl (S)-2-hydroxy-2-(3-(3-(4-((((R)-2-hydroxy-2-(8-hydroxy-2-oxo-1,2-dihydroquinolin-5-yl)ethyl)amino)methyl)benzamido)propoxy)phenyl)-2-phenylacetate] | 0.3 to 3 | < 0.3
